Drawing on ChEMBL document CHEMBL1136136, “Formylchromone derivatives as a novel class of protein tyrosine phosphatase 1B inhibitors” (Bioorg Med Chem Lett, 2003), this text covers IC50 for 17 compounds.

Experiment [1] has as its target T1, Tyrosine-protein phosphatase non-receptor type 1 (Homo sapiens, UniProt P18031).
T1 sequence (P18031 whole entry): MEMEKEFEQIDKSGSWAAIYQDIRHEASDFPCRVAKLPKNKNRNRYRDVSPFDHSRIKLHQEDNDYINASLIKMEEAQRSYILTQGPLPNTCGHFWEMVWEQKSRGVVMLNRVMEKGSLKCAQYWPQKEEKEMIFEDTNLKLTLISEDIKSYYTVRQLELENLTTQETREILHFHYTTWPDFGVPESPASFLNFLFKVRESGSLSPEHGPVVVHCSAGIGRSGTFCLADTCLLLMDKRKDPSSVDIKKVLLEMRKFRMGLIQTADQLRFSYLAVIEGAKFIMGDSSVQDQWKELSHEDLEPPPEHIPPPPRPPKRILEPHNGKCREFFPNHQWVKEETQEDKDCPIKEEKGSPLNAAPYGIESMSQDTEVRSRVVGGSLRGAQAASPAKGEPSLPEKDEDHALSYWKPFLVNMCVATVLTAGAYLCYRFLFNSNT
The experiment in a line: Inhibition of human Protein-tyrosine phosphatase 1B.

In experiment [2] the target is Receptor-type tyrosine-protein phosphatase F (Homo sapiens, UniProt P10586). Kind of experiment: Compound was tested for selectivity against LAR.
Sequence of Receptor-type tyrosine-protein phosphatase F (P10586 whole entry): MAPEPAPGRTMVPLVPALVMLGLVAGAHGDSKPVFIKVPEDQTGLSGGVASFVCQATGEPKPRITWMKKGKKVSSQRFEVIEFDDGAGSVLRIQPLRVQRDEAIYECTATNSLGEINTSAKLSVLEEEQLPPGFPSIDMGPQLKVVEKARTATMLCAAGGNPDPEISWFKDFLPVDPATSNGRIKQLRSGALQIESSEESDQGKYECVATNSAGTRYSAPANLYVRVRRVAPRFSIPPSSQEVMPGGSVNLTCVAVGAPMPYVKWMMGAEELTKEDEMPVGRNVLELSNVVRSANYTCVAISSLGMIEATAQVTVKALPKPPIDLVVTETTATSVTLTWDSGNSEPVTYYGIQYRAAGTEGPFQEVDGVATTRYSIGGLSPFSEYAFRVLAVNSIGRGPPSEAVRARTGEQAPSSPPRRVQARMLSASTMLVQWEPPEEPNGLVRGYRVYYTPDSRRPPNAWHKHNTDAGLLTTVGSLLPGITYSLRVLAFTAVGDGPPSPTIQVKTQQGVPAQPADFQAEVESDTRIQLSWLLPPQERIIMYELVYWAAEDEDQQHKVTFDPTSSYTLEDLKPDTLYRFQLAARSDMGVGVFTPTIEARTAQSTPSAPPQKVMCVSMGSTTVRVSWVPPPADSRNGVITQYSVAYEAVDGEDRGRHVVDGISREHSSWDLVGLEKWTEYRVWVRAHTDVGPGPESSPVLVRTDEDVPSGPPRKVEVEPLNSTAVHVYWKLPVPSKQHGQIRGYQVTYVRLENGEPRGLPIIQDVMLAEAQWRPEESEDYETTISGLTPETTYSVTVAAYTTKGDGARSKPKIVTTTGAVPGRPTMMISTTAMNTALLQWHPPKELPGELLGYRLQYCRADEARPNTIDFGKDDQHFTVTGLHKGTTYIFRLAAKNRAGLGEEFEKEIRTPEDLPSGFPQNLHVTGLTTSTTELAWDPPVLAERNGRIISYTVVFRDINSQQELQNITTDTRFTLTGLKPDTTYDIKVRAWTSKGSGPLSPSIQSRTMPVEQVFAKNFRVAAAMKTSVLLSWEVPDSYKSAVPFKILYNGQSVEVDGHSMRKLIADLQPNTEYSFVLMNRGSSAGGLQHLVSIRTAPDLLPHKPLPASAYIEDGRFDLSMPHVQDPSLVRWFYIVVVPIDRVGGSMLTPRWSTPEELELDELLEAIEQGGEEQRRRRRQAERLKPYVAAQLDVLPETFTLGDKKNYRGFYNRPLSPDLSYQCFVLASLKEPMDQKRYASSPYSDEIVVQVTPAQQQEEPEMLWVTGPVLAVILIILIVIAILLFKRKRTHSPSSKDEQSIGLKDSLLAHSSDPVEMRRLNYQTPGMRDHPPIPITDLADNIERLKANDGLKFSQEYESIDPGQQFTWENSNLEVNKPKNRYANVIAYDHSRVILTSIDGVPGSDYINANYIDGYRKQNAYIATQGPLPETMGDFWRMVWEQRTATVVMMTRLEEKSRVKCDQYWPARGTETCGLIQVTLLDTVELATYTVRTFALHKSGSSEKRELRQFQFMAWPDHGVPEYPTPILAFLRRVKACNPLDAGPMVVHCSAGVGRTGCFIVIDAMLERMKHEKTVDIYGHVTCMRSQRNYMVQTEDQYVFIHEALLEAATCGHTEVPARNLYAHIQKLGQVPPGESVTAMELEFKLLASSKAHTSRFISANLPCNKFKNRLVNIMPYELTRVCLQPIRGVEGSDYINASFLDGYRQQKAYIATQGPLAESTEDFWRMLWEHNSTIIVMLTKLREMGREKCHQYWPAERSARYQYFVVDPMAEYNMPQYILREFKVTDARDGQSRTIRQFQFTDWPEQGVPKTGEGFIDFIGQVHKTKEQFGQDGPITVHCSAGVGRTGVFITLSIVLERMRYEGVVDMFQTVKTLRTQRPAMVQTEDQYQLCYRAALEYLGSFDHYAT
Experiment [3] deals with T2, Tyrosine-protein phosphatase non-receptor type 2 (Homo sapiens, UniProt P17706).
T2 sequence (P17706 whole entry): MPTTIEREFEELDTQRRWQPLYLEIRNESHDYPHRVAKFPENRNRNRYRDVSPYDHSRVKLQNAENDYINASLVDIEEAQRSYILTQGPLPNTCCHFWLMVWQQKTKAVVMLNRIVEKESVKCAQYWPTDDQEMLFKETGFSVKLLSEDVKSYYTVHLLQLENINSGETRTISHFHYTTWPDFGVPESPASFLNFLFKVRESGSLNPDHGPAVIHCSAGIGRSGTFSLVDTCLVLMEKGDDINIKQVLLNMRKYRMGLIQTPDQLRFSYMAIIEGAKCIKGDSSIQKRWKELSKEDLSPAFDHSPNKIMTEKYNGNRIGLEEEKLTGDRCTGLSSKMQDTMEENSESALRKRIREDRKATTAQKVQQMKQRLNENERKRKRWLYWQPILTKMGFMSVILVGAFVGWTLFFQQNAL
The experiment in a line: Compound was tested for selectivity against human T cell protein tyrosine phosphatase. The class given is cell-based.

Structures are written as SMILES.

The term IC50 denotes the concentration at which inhibition is half-maximal.

`Cc1cc2occ(C=O)c(=O)c2cc1Cl` registered a 50% inhibitory concentration (IC50) in experiment [1] of 18 µM.

Regarding `O=Cc1coc2ccc3ccccc3c2c1=O`, the IC50 was over 1000 µM in experiment [2], 14 µM in experiment [1] and 780 µM in experiment [3].

As for `O=Cc1coc2ccc(-c3ccc(-c4ccccc4)cc3)cc2c1=O`, the figures for the IC50 in experiment [2], in experiment [1] and in experiment [3] were over 1000 µM, 4.3 µM and 51 µM, respectively.

In experiment [1], `Nc1oc2ccccc2c(=O)c1C=O` showed an IC50 of over 1000 µM.

Compound `O=Cc1coc2ccc([N+](=O)[O-])cc2c1=O` returned an IC50 in experiment [1] of 91 µM.

Take `O=Cc1coc2ccc(F)cc2c1=O`: in experiment [1], inhibition was half-maximal at 55 µM (IC50).

With `O=Cc1coc2c(ccc3ccccc32)c1=O`, the half-maximal inhibitory concentration (IC50) in experiment [1] amounted to 25 µM.

On to `CC(C)c1ccc2occ(C=O)c(=O)c2c1`, for which, in experiment [1], the midpoint of inhibition, the IC50, lay at 22 µM.

Turning to `O=C(O)c1cc(=O)c2ccccc2o1` [CHROMOCARB], the IC50 in experiment [1] is over 1000 µM.

As to `O=Cc1coc2c(Cl)cc(Cl)cc2c1=O`, the IC50 in experiment [1] was found to be 25 µM.

As to `O=Cc1coc2ccc(-c3ccccc3)cc2c1=O`, the half-inhibitory concentration (IC50) in experiment [2] was over 1000 µM; in experiment [1], 14 µM; in experiment [3] it was 240 µM.

On to `O=C(O)c1cc2ccccc2oc1=O` [COUMARIN-3-CARBOXYLIC ACID], for which, in experiment [1], the IC50 is over 1000 µM.

For `O=C(O)c1coc2ccccc2c1=O`, in experiment [1], the IC50 is over 1000 µM.

As for `O=Cc1coc2ccc(Br)cc2c1=O`, the IC50 in experiment [1] is 20 µM.

The compound `O=Cc1coc2c(Br)cc(Br)cc2c1=O` displayed an IC50 in experiment [1] of 20 µM.

In turn, `O=Cc1coc2ccc(Cl)cc2c1=O` came in with an IC50 in experiment [1] of 28 µM.

For `O=Cc1coc2ccccc2c1=O`, 73 µM corresponded to half-maximal inhibition in experiment [1] (IC50).
